Experimental data: patent US20210213010A1, “TLR7/8 AGONISTS AND LIPOSOME COMPOSITIONS” (Torque Therapeutics, Inc., priority 2018, published 2021)
pEC50: −log10 of the molar value. Several values for one entry are separate records, joined by “and”; a condition that tells them apart may be missing. Equal values may be shown once.

Assays:
[1] = biological target: T1, mTLR7 (Mus musculus, UniProt P58681); experiment: NF-κB induction in HEK-Blue mTLR7 reporter cells; format: cell-based; conditions: free compounds, 16 h
T1 construct: host or cells: HEK-Blue (HEK293-derived) reporter cells
T1 sequence (P58681 27-1050): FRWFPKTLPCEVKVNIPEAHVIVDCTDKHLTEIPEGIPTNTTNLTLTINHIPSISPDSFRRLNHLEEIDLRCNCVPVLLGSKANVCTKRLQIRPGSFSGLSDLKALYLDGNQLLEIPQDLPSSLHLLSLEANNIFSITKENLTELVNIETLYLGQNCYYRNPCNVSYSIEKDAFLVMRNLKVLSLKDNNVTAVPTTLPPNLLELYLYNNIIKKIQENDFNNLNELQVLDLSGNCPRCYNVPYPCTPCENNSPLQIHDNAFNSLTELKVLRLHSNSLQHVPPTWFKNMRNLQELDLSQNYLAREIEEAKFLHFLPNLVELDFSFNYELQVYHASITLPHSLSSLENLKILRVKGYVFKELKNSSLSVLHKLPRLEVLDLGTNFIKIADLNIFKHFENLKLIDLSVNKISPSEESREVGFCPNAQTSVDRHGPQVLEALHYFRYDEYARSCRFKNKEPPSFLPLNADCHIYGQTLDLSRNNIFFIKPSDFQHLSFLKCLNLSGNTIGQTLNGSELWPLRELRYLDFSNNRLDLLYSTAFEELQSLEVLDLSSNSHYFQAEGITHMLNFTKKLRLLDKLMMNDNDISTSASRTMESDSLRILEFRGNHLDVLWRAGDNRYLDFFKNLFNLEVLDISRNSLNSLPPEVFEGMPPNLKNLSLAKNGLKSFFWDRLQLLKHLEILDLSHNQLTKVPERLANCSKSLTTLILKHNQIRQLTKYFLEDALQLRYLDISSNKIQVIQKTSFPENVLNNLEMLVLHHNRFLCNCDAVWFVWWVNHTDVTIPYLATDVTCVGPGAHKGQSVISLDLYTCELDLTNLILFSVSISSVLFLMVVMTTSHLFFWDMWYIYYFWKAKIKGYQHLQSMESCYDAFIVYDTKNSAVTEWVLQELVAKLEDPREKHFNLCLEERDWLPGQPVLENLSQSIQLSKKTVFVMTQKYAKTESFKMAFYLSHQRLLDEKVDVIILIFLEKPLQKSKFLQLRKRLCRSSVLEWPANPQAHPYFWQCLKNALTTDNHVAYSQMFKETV
Source text: This example describes the general procedure used to assess the compounds' potency to induce NF-κB expression in human embryonic kidney (HEK) cells. The transcription factor NF-κB is expressed upon stimulation of TLR7/8 and is commonly used for quantifying TLR7/8 agonist potencies in reporter cell assays. Conversely, we used HEK-Blue mTLR-7 cells to evaluate the potencies of the synthesized derivatives, as previously reported (Shukla et al, J. Med. Chem. (2010), 53, 4450-4465).
HEK-Blue TLR7 assays were carried out using HEK-Blue™ mTLR7 cells (Invivogen, Toulouse, France, Cat. #hkb-mtlr7). The assays were carried out according to the protocol from Invivogen. TLR expressing cells were cultured in DMEM high glucose (4.5 g/L) supplemented with 10% (v/v) fetal bovine serum (FBS) and 1% (v/v) penicillin-streptomycin (P/S) to 50 U/ml penicillin and […] streptomycin. On the day of the study, the cells were seeded in a 96-well plate (ThermoFisher Scientific, Roskilde, Denmark) with 20 μL imidazoquinoline TLR7/8 agonist solutions per well at varying concentrations by adding 180 μL cell suspension, made by suspending cells to 0.22×10^6 cells per mL in HEK-Blue™ Detection medium (Invivogen, Cat. #hb-det2) added Blasticidin (10 μg/ml) and Zeocin™ (100 μg/ml), leading to a final concentration of 40×10^3 cells per well in triplicates. Cells were incubated with the imidazoquinoline TLR7/8 agonists, formulated in liposomes or dissolved in PBS, at 37° C. with 5% CO2 for 16 h. The response was quantified spectrophotometrically at 655 nm and was normalized to the signal from a blank sample (DMSO dilution) run in parallel.

[2] = Remote loading efficiency of small molecules into liposomes (PD-10 size exclusion, HPLC); format: physicochemical; conditions: mean (SD), n = 2
Procedure: A solution of the small molecule (modified TLR agonist) was lyophilized in a vial equipped with a magnetic stir bar over night to form a fluffy white powder. This powder was added either formulation F1 or F2 to the wanted drug/lipid ratio. The resulting mixture was stirred at 55° C. or 41° C. for formulation F1 and F2 respectively for 3h, then allowed to cool to rt before the solutions were refrigerated and stored at 4° C.
Remote loading efficiency was determined at 1 h and 3 h by taking out 100 μL of the mixture and applying this and 900 μL buffer (25 mM HEPES, 10 vol % sucrose buffer, pH 7.4) to a PD-10 column size exclusion column. Following, 10×1 mL fractions were collected, and the small molecule compound concentrations in the loading mixture and in the liposome containing fractions were determined on analytical HPLC. Loading efficiency was calculated as percentage of molecules found in liposome containing fractions out of the applied amount. The general procedure for the small molecule remote loading is visualized in FIG. 3. The general concept of remote loading imidazoquinolines in liposomes that are dialyzed against HEPES is visualized in FIG. 4.

[3] = test system: RAW-Blue cells; experiment: NF-κB induction in RAW-Blue reporter cells (RAW 264.7 macrophages, SEAP); format: cell-based; conditions: for pEC50: RAW-Blue, sigmoidal 4PL fitting, 24 h; for Potency in the RAW-Blue cell assay: compared with R848
Source text: This example describes the general procedure used to assess the compounds' potency to induce NF-κB expression in RAW 264.7 macrophages cells that stably express secreted embryonic alkaline phosphatase (SEAP) upon induction of NF-κB. RAW-Blue™ reporter cells are commonly used for quantifying TLR7/8 agonist potencies in reporter cell assays. Conversely, we used RAW-Blue™ cells to evaluate the potencies of the synthesized derivatives, as previously reported^1. ^1 Ryu et al, J. Am. Chem. Soc. (2014), 136, 10823-10825
RAW 264.7 assays were carried out using RAW-Blue™ cells and QUANTI-Blue™ detection solution (Invivogen, Toulouse, France, at. #raw-sp and rep-qbs respectively). The assays carried out according to the protocol from Invivogen. RAW 264.7 macrophages were cultured in DMEM high glucose (4.5 g/L) supplemented with 10% (v/v) FBS, 1% (v/v) P/S, and Normocin™ (100 μg/ml). On the day of the study, the cells were seeded in a 96-well plate (ThermoFisher Scientific, Roskilde, Denmark) with 20 μL TLR7/8 agonist solutions per well at varying concentrations by adding 180 μL cell suspension, made by suspending cells to 0.55×10^6 cells per mL in the prepared cell medium added Zeocin™ (200 μg/ml), leading to a final concentration of 100×10^3 cells per well in triplicates. Cells were incubated with the TLR7/8 agonists, diluted from 10 mM DMSO stocks in PBS, at 37° C. with 5% CO2 for 24 h for SEAP production. 50 μL SEAP containing cell supernatant from each well was added 150 μL QUANTI-Blue™ detection solution and was incubated at 37° C. for 3-6 h. The resulting response was quantified spectrophotometrically at 640 nm and was normalized to the signal from a blank sample (DMSO dilution) run in parallel.
Half maximal effective concentration (EC50) values were determined from sigmoidal 4PL fittings from the resulting dose-response curves in GraphPad Prism.

[4] = formulation F3, drug/lipid ratio 0.10, 1 h
[5] = formulation F3, drug/lipid ratio 0.10, 3 h

| SMILES | TLR7 agonist activity (NF-κB induction) [1] | Remote loading efficiency 1 h (%) [2, 4] | Remote loading efficiency 3 h (%) [2, 5] | Remote loading efficiency 1 h (%) ([2]; formulation F3, drug/lipid ratio 0.25, 1 h) | Remote loading efficiency 3 h (%) ([2]; formulation F3, drug/lipid ratio 0.25, 3 h) | Remote loading efficiency 1 h (%) ([2]; formulation F3, drug/lipid ratio 0.50, 1 h) | Remote loading efficiency 3 h (%) ([2]; formulation F3, drug/lipid ratio 0.50, 3 h) | pEC50 [3] | Potency in the RAW-Blue cell assay [3] |
| --- | --- | --- | --- | --- | --- | --- | --- | --- | --- |
| CCCCc1nc2c(N)nc3ccccc3c2n1Cc1ccc(CNC(=O)[C@@H](N)CC(N)=O)cc1 [MK135, (S)-2-amino-N-(4-((4-amino-2-butyl-1H-imidazo [4,5-c]quinolin-1-yl)methyl)benzyl)succinamide] | the lowest potency of all derivatives | 85.9 (4.7) % | 86.4 (5.1) % | 55.5 (5.7) % | 65.0 (7.7) % | 19.5 (0.1) % | 23% and 23.3 (0.3) % | 6.38 |  |
| CCCCc1nc2c(N)nc3ccccc3c2n1Cc1ccc(CNC(=O)[C@@H](N)CCC(N)=O)cc1 [MK136, (S)-2-amino-N-(4-((4-amino-2-butyl-1H-imidazo[4,5-c]quinolin-1-yl)methyl)benzyl)pentanediamide] | the lowest potency of all derivatives | 2.0 (0.2) % | 3.1 (0.4) % |  |  |  |  | 6.13 |  |
| CCCCc1nc2c(N)nc3ccccc3c2n1Cc1ccc(CNC(=O)[C@H](C)N)cc1 [MK137, (S)-2-amino-N-(4-((4-amino-2-butyl-1H-imidazo[4,5-c]quinolin-1-yl)methyl)benzyl)propanamide] | potencies that were higher or comparable to that of R848 | 98.1 (5.2) % | 99.1 (1.8) % |  |  |  |  | 7.40 | greater potencies than R848 |
| CCCCc1nc2c(N)nc3ccccc3c2n1Cc1ccc(CNC(=O)CN)cc1 [MK139, 2-amino-N-(4-((4-amino-2-butyl-1H-imidazo[4,5-c]quinolin-1-yl)methyl)benzyl)acetamide] | potencies that were higher or comparable to that of R848 | 84.7 (17.4) % | 90.6 (1.6) % |  |  |  |  | 6.47 |  |
| CCCCc1nc2c(N)nc3ccccc3c2n1Cc1ccc(CNC(=O)[C@@H]2CCCN2)cc1 [MK140, (S)—N-(4-((4-amino-2-butyl-1H-imidazo[4,5-c]quinolin-1-yl)methyl)benzyl)pyrrolidine-2-carboxamide] | potencies that were higher or comparable to that of R848 | 93.6 (0.1) % | 98.3 (3.4) % |  |  |  |  | 7.30 | greater potencies than R848 |
| CCCCc1nc2c(N)nc3ccccc3c2n1Cc1ccc(CNC(=O)[C@@H](N)C(C)C)cc1 [MK145, (S)-2-amino-N-(4-((4-amino-2-butyl-1H-imidazo[4,5-c]quinolin-1-yl)methyl)benzyl)-3-methylbutanamide] | potencies that were higher or comparable to that of R848 | 97.2 (4.0) % | 92.4 (3.9) % |  |  |  |  | 7.52 | the most potent compounds |
| CCCCc1nc2c(N)nc3ccccc3c2n1Cc1ccc(CNC(=O)[C@@H](N)[C@@H](C)CC)cc1 [MK146, (2S,3S)-2-amino-N-(4-((4-amino-2-butyl-1H-imidazo[4,5-c]quinolin-1-yl)methyl)benzyl)-3-methylpentanamide] | potencies that were higher or comparable to that of R848 | 94.1 (2.9) % | 88.4 (1.5) % |  |  |  |  | 7.40 | greater potencies than R848 |
